This note sets out measurements from US12018021B2 (UCB Biopharma SRL, priority 2018, dated 2024).

Each structure is given as a SMILES string.

The target of the experiment is IgE-Tb / sFcεRIα-Y131A-AF488 (Homo sapiens, UniProt P01854, N146Q/N252Q). In words: IgE-Tb / sFcεRIα-Y131A-AF488 FRET assay (protocol for examples 234 to 501). Format: binding. The conditions noted are these: examples 234 to 501: compound with IgE-Tb 30 minutes before sFcεRIα-Y131A-AF488, incubated 18 hours at room temperature; read-out: Y131A FRET IC50 range. In a few lines: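 Compounds (10-point 3-fold series, top usually 10 μM, 2% DMSO) preincubated 30 min with 5 nM IgE-Tb, then 25 nM sFcεRIα-Y131A-AF488 added; 18 h at room temperature in the dark. TR-FRET ratio 520/490 nm after 337 nm excitation, background-subtracted; IC50 by four-parameter logistic fit.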
Sequence of IgE-Tb / sFcεRIα-Y131A-AF488 (P01854 whole entry N146Q/N252Q): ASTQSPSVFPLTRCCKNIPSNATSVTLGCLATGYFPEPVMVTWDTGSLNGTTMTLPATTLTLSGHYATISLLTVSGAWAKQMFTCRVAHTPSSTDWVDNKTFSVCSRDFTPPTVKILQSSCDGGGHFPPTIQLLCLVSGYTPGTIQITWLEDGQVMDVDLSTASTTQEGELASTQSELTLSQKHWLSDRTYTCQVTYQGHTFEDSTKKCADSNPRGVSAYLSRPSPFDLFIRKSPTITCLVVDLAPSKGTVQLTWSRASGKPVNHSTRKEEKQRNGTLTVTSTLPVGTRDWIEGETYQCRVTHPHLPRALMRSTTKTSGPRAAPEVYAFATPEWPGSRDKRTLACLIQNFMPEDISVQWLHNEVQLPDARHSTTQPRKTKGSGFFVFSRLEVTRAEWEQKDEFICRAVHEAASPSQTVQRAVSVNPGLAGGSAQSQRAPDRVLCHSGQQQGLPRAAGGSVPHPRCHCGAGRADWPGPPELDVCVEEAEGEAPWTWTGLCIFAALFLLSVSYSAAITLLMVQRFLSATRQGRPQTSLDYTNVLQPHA
One may read the IC50 as the concentration that gives 50% inhibition. In the case of `Cc1nc(Cl)ccc1Nc1nncn1[C@H]1CCc2sc(NC(=O)C3CC3)c(C(=O)NCC3CC3)c2C1` [Example 302, (5S)-5-[3-[(6-chloro-2-methyl-3-pyridyl)amino]-1,2,4-triazol-4-yl]-2-(cyclopropanecarbonylamino)-N-(cyclopropylmethyl)-4,5,6,7-tetrahydrobenzothiophene-3-carboxamide], the IC50 is less than 1000 nM.

With `Cc1nc(C(F)(F)F)ccc1Nc1nncn1[C@H]1CCc2sc(NC(=O)C3CC3)c(C(=O)NCC3CC3)c2C1` [Example 303, (5S)-2-(cyclopropanecarbonylamino)-N-(cyclopropylmethyl)-5-[3-[[2-methyl-6-(trifluoromethyl)-3-pyridyl]amino]-1,2,4-triazol-4-yl]-4,5,6,7-tetrahydrobenzothiophene-3-carboxamide], the IC50 was less than 1000 nM.

`Cc1nnccc1Nc1nncn1[C@H]1CCc2sc(NC(=O)C3CC3)c(C(=O)NCC3CC3)c2C1` [Example 304, (5S)-2-(cyclopropanecarbonylamino)-N-(cyclopropylmethyl)-5-[3-[(3-methylpyridazin-4-yl)amino]-1,2,4-triazol-4-yl]-4,5,6,7-tetrahydrobenzothiophene-3-carboxamide]: the IC50 is less than 1000 nM.

Turning to `Cn1nc(Cl)cc1Nc1nncn1[C@H]1CCc2sc(NC(=O)C3CC3)c(C(=O)NCC3CC3)c2C1` [Example 305, (5S)-5-[3-[(5-chloro-2-methyl-pyrazol-3-yl)amino]-1,2,4-triazol-4-yl]-2-(cyclopropanecarbonylamino)-N-(cyclopropylmethyl)-4,5,6,7-tetrahydrobenzothiophene-3-carboxamide], the IC50 was less than 1000 nM.

For `C[C@@H]1C[C@@H]1C(=O)Nc1sc2c(c1C(=O)NCC1CC1)C[C@@H](n1cnnc1Nc1cc(OC(F)F)nn1C)CC2` [Example 306, (5S)—N-(cyclopropylmethyl)-5-[3-[[5-(difluoromethoxy)-2-methyl-pyrazol-3-yl]amino]-1,2,4-triazol-4-yl]-2-[[(1S,2R)-2-methylcyclopropanecarbonyl]amino]-4,5,6,7-tetrahydrobenzothiophene-3-carboxamide], the IC50 is less than 1000 nM.

Take `Cc1nscc1Nc1nncn1[C@H]1CCc2sc(NC(=O)C3CC3)c(C(=O)NCC3CC3)c2C1` [Example 307, (5S)-2-(cyclopropanecarbonylamino)-N-(cyclopropylmethyl)-5-[3-[(3-methylisothiazol-4-yl)amino]-1,2,4-triazol-4-yl]-4,5,6,7-tetrahydrobenzothiophene-3-carboxamide]: the half-maximal inhibitory concentration (IC50) was less than 1000 nM.

As to `Cc1nocc1Nc1nncn1[C@H]1CCc2sc(NC(=O)C3CC3)c(C(=O)NCC3CC3)c2C1` [Example 308, (5S)-2-(cyclopropanecarbonylamino)-N-(cyclopropylmethyl)-5-[3-[(3-methylisoxazol-4-yl)amino]-1,2,4-triazol-4-yl]-4,5,6,7-tetrahydrobenzothiophene-3-carboxamide], the IC50 is less than 1000 nM.

For the compound `Cn1nc(OCC2CC2)cc1Nc1nncn1[C@H]1CCc2sc(NC(=O)[C@H]3C[C@@H]3F)c(C(=O)NCC3CC3)c2C1` [Example 309, (5S)-5-[3-[[5-(cyclopropylmethoxy)-2-methyl-pyrazol-3-yl]amino]-1,2,4-triazol-4-yl]-N-(cyclopropylmethyl)-2-[[(1R,2S)-2-fluorocyclopropanecarbonyl]amino]-4,5,6,7-tetrahydrobenzothiophene-3-carboxamide], the IC50 was less than 1000 nM.

As to `CCOc1cc(Nc2nncn2[C@H]2CCc3sc(NC(=O)[C@H]4C[C@@H]4F)c(C(=O)NCC4CC4)c3C2)n(C)n1` [Example 310, (5S)—N-(cyclopropylmethyl)-5-[3-[(5-ethoxy-2-methyl-pyrazol-3-yl)amino]-1,2,4-triazol-4-yl]-2-[[(1R,2S)-2-fluorocyclopropanecarbonyl]amino]-4,5,6,7-tetrahydrobenzothiophene-3-carboxamide], the IC50 is less than 1000 nM.

Take `Cn1nc(C(F)(F)F)cc1Nc1nncn1[C@H]1CCc2sc(NC(=O)[C@H]3C[C@H]3F)c(C(=O)NCC3CC3)c2C1` [Example 312, (5S)—N-(cyclopropylmethyl)-2-[[(1R,2R)-2-fluorocyclopropanecarbonyl]amino]-5-[3-[[2-methyl-5-(trifluoromethyl)pyrazol-3-yl]amino]-1,2,4-triazol-4-yl]-4,5,6,7-tetrahydrobenzothiophene-3-carboxamide]: the IC50 was less than 1000 nM.

In the case of `Cn1nc(OC(F)F)cc1Nc1nncn1[C@H]1CCc2sc(NC(=O)[C@H]3C[C@@H]3F)c(C(=O)NCC3CC3)c2C1` [Example 313, (5S)—N-(cyclopropylmethyl)-5-[3-[[5-(difluoromethoxy)-2-methyl-pyrazol-3-yl]amino]-1,2,4-triazol-4-yl]-2-[[(1R,2S)-2-fluorocyclopropanecarbonyl]amino]-4,5,6,7-tetrahydrobenzothiophene-3-carboxamide], the IC50 is less than 1000 nM.

As for `Cn1nc(OC(F)F)cc1Nc1nncn1[C@H]1CCc2sc(NC(=O)[C@H]3C[C@@H]3F)c(C(=O)NC[C@@H]3C[C@@H]3F)c2C1` [Example 322, (5S)-5-[3-[[5-(difluoromethoxy)-2-methylpyrazol-3-yl]amino]-1,2,4-triazol-4-yl]-2-[[(1R,2S)-2-fluorocyclopropanecarbonyl]amino]-N-[[(1S,2S)-2-fluorocyclopropyl]methyl]-4,5,6,7-tetrahydro-1-benzothiophene-3-carboxamide], the IC50 was less than 1000 nM.

`Cc1nscc1Nc1nncn1[C@H]1CCc2sc(NC(=O)C3CC34CC4)c(C(=O)NCC3CC3)c2C1` (stereo partly drawn) [Example 329, (5S)—N-(cyclopropylmethyl)-5-[3-[(3-methyl-1,2-thiazol-4-yl)amino]-1,2,4-triazol-4-yl]-2-(spiro[2.2]pentane-2-carbonylamino)-4,5,6,7-tetrahydro-1-benzothiophene-3-carboxamide]: the IC50 was less than 1000 nM.

As to `COc1cc(Nc2nncn2[C@H]2CCc3sc(NC(=O)C4CC4)c(C(=O)NCC4CC4)c3C2)n(C)n1` [Example 337, (5S)-2-(cyclopropanecarbonylamino)-N-(cyclopropylmethyl)-5-[3-[(5-methoxy-2-methylpyrazol-3-yl)amino]-1,2,4-triazol-4-yl]-4,5,6,7-tetrahydro-1-benzothiophene-3-carboxamide], the IC50 is less than 1000 nM.

On to `Cn1nc(OC(F)F)cc1Nc1nncn1[C@H]1CCc2sc(NC(=O)[C@H]3C[C@H](F)C3)c(C(=O)NCC3CC3)c2C1` [Example 343, (5S)—N-(cyclopropylmethyl)-5-[3-[[5-(difluoromethoxy)-2-methylpyrazol-3-yl]amino]-1,2,4-triazol-4-yl]-2-[trans-(3-fluorocyclobutanecarbonyl)amino]-4,5,6,7-tetrahydro-1-benzothiophene-3-carboxamide], for which the IC50 is less than 1000 nM.

Regarding `Cn1nc(OC(F)F)cc1Nc1nncn1[C@H]1CCc2sc(NC(=O)C3CC(F)(F)C3)c(C(=O)NCC3CC3)c2C1` [Example 346, (5S)—N-(cyclopropylmethyl)-2-[(3,3-difluorocyclobutanecarbonyl)amino]-5-[3-[[5-(difluoromethoxy)-2-methylpyrazol-3-yl]amino]-1,2,4-triazol-4-yl]-4,5,6,7-tetrahydro-1-benzothiophene-3-carboxamide], the 50% inhibitory concentration (IC50) is less than 1000 nM.

As to `Cn1nc(OC(F)F)cc1Nc1nncn1[C@H]1CCc2sc(NC(=O)[C@H]3C[C@@H](F)C3)c(C(=O)NCC3CC3)c2C1` [Example 347, (5S)—N-(cyclopropylmethyl)-5-[3-[[5-(difluoromethoxy)-2-methylpyrazol-3-yl]amino]-1,2,4-triazol-4-yl]-2-[cis-(3-fluorocyclobutanecarbonyl)amino]-4,5,6,7-tetrahydro-1-benzothiophene-3-carboxamide], the IC50 is less than 1000 nM.

`Cn1nc(OC(F)F)cc1Nc1nncn1[C@H]1CCc2sc(NC(=O)C3CC3)c(C(=O)NCC3CC3)c2C1` [Example 351, (5S)-2-(cyclopropanecarbonylamino)-N-(cyclopropylmethyl)-5-[3-[[5-(difluoromethoxy)-2-methylpyrazol-3-yl]amino]-1,2,4-triazol-4-yl]-4,5,6,7-tetrahydro-1-benzothiophene-3-carboxamide]: the IC50 was less than 1000 nM.

As to `C[C@H]1C[C@@H]1C(=O)Nc1sc2c(c1C(=O)NCC1CC1)C[C@@H](n1cnnc1Nc1cc(OC(F)F)nn1C)CC2` [Example 352, (5S)—N-(cyclopropylmethyl)-5-[3-[[5-(difluoromethoxy)-2-methylpyrazol-3-yl]amino]-1,2,4-triazol-4-yl]-2-[[(1S,2S)-2-methylcyclopropanecarbonyl]amino]-4,5,6,7-tetrahydro-1-benzothiophene-3-carboxamide], the IC50 was less than 1000 nM.

Consider `Cn1nc(C(F)F)cc1Nc1nncn1[C@H]1CCc2sc(NC(=O)C3CC(F)C3)c(C(=O)NCC3CC3)c2C1` (stereo partly drawn) [Example 353, (5S)—N-(cyclopropylmethyl)-5-[3-[[5-(difluoromethyl)-2-methylpyrazol-3-yl]amino]-1,2,4-triazol-4-yl]-2-[(3-fluorocyclobutanecarbonyl)amino]-4,5,6,7-tetrahydro-1-benzothiophene-3-carboxamide], for which the IC50 was less than 1000 nM.

With `Cn1nc(C(F)F)cc1Nc1nncn1[C@H]1CCc2sc(NC(=O)[C@H]3C[C@H](F)C3)c(C(=O)NCC3CC3)c2C1` [Example 354, (5S)—N-(cyclopropylmethyl)-5-[3-[[5-(difluoromethyl)-2-methylpyrazol-3-yl]amino]-1,2,4-triazol-4-yl]-2-[trans-(3-fluorocyclobutanecarbonyl)amino]-4,5,6,7-tetrahydro-1-benzothiophene-3-carboxamide], the half-maximal inhibitory concentration (IC50) was less than 1000 nM.

Consider `Cn1nc(C(F)F)cc1Nc1nncn1[C@H]1CCc2sc(NC(=O)C3COC3)c(C(=O)NCC3CC3)c2C1` [Example 356, N-[(5S)-3-(cyclopropylmethylcarbamoyl)-5-[3-[[5-(difluoromethyl)-2-methylpyrazol-3-yl]amino]-1,2,4-triazol-4-yl]-4,5,6,7-tetrahydro-1-benzothiophen-2-yl]oxetane-3-carboxamide], for which the IC50 is less than 1000 nM.
